# In US20030228395A1, “Isotropic transparent structured fluids” (Archer-Daniels Midland Company, priority 2002, published 2003):
# Legend:
# [1] = Text: FIG. 6. […] The values assign the maximum amount of vitamin E that can be solubilized as a wt/wt percentage of the total micro-emulsion weight.
# The maximum amount of vitamin E solubilized was compared among the different forms of vitamin E along line 6:4 in the five-component system of D-limonene/ethanol (1/1) as the oil phase, TWEEN 60 as surfactant, and water/1,2-propanediol (1/1) as the aqueous phase, in order to obtain insight into the difference in their interfacial behavior (FIG. 6).
# [2] = Effect of pH on stability of micro-emulsions; assay type: physicochemical; conditions: maximum tocopherol acetate, line 6.4 of Example 1, dilutions 50%, 60%, 70%, 80%; buffer pH 3.4, 3.8, 5.4, 7.0, 8.6 replacing water
# Text: A buffer of different pH values (3.4, 3.8, 5.4, 7.0 and 8.6) replaced the water in the aqueous phase.
Compound,solubilization capacity along the dilution line [1],solubilization capacity when D-limonene was replaced by triacetin [1],stability of micro-emulsions at different pH [2]
Cc1c(C)c2c(c(C)c1O)CC[C@@](C)(CCC[C@H](C)CCC[C@H](C)CCCC(C)C)O2 [alpha-tocopherol],"two main dramatic decreases in solubilization, after which a stabilization in solubilization is maintained",increased along all of the dilution line,–
"CC(=O)Oc1c(C)c(C)c2c(c1C)CCC(C)(CCC[C@H](C)CCC[C@H](C)CCCC(C)C)O2 (stereo partly drawn) [Tocopherol Acetate, tocopherol acetate]",–,–,stable for over two months
